Values after ≈ are worked out from the molar mass of the structure shown. Like-named read-outs stand apart in the source and are kept apart here. Values belong to the molecule of their own block, whether it stands above or below them. Peptide text beside a SMILES is read from it.
Experiments:
[1] = test system: S. aureus USA300; test: microbe, parasite or virus in culture; format: cell-based, Staphylococcus aureus; details: for MIC S. aureus USA 300: quantified by UV
How it was run: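 Broth microdilution: log-phase cultures in tryptic soy broth diluted to OD600 0.001, exposed to two-fold diluted peptides at 37° C overnight, growth read at 630 nm. Medium effects on S. aureus USA300 tested with up to 200 mM NaCl, 2 mM CaCl2, 5-10% human serum, mouse plasma, fluids or tissue homogenate supernatants.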

[2] = test system: P. aeruginosa PAO1; format: cell-based, Pseudomonas aeruginosa
How it was run: (§1)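 Broth microdilution in tryptic soy broth: log-phase cultures (OD600 ≈0.5) diluted to OD600 0.001, given two-fold peptide dilutions, incubated overnight at 37° C. Growth read at 630 nm.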

[3] = test system: E. coli ATCC 25922; format: cell-based, Escherichia coli
How it was run: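 Peptides, serially diluted two-fold, were incubated overnight at 37 °C with E. coli ATCC 25922 from log-phase cultures adjusted to OD600 0.001. Turbidity at 630 nm served as the read-out in this broth microdilution format.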

[4] = test system: K. pneumoniae ATCC 13883; format: cell-based, Klebsiella pneumoniae; details: quantified by UV
How it was run: as §1

[5] = Hemolytic assay; format: cell-based, human; details: human, human red blood cells, 2% (v/v)
How it was run: (§2)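 HL50 marks the peptide level lysing half of a 2% (v/v) suspension of washed human erythrocytes after 1 h at 37 °C. Released hemoglobin measured at 545 nm, scaled between PBS (0%) and Triton X-100 (2% or 1%; 100%). Selectivity index computed as HL50 over MIC.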

[6] = test system: human red blood cells (hRBCs); test: Hemolytic assay; format: cell-based
How it was run: as §2

[7] = test system: S. aureus M838-17 (MRSA); test: microbe, parasite or virus in culture; format: cell-based, Staphylococcus aureus; details: M838-17
How it was run: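 Peptides were serially diluted two-fold against bacteria grown in tryptic soy broth to log phase (OD600 ≈0.5), then seeded at OD600 0.001. Plates were held overnight at 37° C and read at 630 nm. USA300 was also tested at pH 6.8, 7.2 and 8.0, with 150 mM NaCl or 5-10% serum, plasma or peritoneal fluid.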

[8] = test system: P. aeruginosa E411-17; test: microbe, parasite or virus in culture; format: cell-based, Pseudomonas aeruginosa; details: for MIC P. aeruginosa 411-17: E411-17
Text: (§3) The bacterial strains used include the Gram-positive strains Staphylococcus aureus USA300 LAC, S. epidermidis 1457, and Bacillus subtilis 168, as well as the Gram-negative isolates Escherichia coli K12 and Acinetobacter baumannii B2367-12. Additional, drug resistance strains include Gram-positive Enterococcus faecium V286-17 (VRE) and S. aureus M838-17 (MRSA) and Gram-negative E. coli E423-17, E. coli E416-17 (ampC), and P. aeruginosa E411-17. Bacteria were cultivated in tryptic soy broth (TSB) (BD Bioscience, MD).
(§4) The antibacterial activity of peptides was evaluated using a standard broth microdilution protocol with minor modifications as described (Mishra, et al. (2012) J. Am. Chem. Soc., 134:12426-12429). In brief, logarithmic phase bacterial cultures (i.e., optical density at 600 nm≈0.5) were diluted to OD600 0.001 and partitioned into a 96-well polystyrene microplate at 90 μL per well. After treatment with 10 μL of peptide solutions two fold diluted to various concentrations, microplates were incubated at 37° C. overnight and read on a ChroMate® 4300 Microplate Reader at 630 nm (GMI, Ramsey, MN). […] To study the influence of medium conditions on the antimicrobial activity of peptides against S. aureus USA300, up to 200 mM sodium chloride (NaCl), 2 mM of calcium chloride, 5-10% of human serum, mouse plasma, fluid, or supernatants of tissue homogenates were included into the assays.
(§5) The bacterial strains used include the Gram-positive bacteria methicillin-resistant Staphylococcus aureus USA300, Enterococcus faecium V286-17 (VRE), S. aureus M838-17 (MRSA) and Gram-negative bacteria E. coli E423-17, E416-7 (ampC), P. aeruginosa E411-17, PA01, K. pneumoniae E406-17, ATCC13883, and A. baumannii B26-16. Bacteria were cultivated in tryptic soy broth (TSB) from BD Bioscience.
(§6) The antibacterial activity of peptides was evaluated using a standard broth microdilution protocol with minor modifications (Mishra, et al. (2017) Acta Biomater., 49:316-328). In brief, logarithmic phase bacterial cultures (i.e., optical density at 600 nm≈0.5) were diluted to 0.001 OD and aliquoted 90 μL per well into a 96-well polystyrene microplate. Added 10 μL peptides per well with various concentrations, plates were incubated at 37° C., overnight. Post incubation the plates are read at 630 nm using a ChroMate® Microplate Reader (GMI). […] To study the influence of medium conditions on the antimicrobial activity of peptides against S. aureus USA300 at different pHs (6.8, 7.2, and 8.0), 150 mM sodium chloride (NaCl), 5-10% of human serum, mouse plasma, and peritoneal fluid were included into the assays.

[9] = test system: K. pneumoniae E406-17; test: microbe, parasite or virus in culture; format: cell-based, Klebsiella pneumoniae; details: for MIC K. pneumonia 406-17: E406-17
Procedure: as §4, §5, §6

[10] = test system: E. faecium V286-17 (VRE); test: microbe, parasite or virus in culture; format: cell-based, Enterococcus faecium; details: Table 14; read-out: MIC E. faecium V286-17 (VRE)
Text: as §3, §4, §5, §6

[11] = test system: E. coli E423-17; test: microbe, parasite or virus in culture; format: cell-based, Escherichia coli; details: Table 14; read-out: MIC E. coli E423-17
Text: as §3, §4, §5, §6

[12] = test system: A. baumannii B26-16; test: microbe, parasite or virus in culture; format: cell-based, Acinetobacter baumannii; details: Table 14; read-out: MIC A. baumannii B26-16
Procedure: as §5, §6

[13] = Table 4, quantitated based on weight

Molecule: CC(C)C[C@H](NC(=O)[C@H](CC(C)C)NC(=O)[C@H](CCCCN)NC(=O)CNC(=O)[C@H](CC(C)C)NC(=O)[C@H](CC(C)C)NC(=O)[C@H](CO)NC(=O)[C@H](CC(C)C)NC(=O)[C@H](CC(C)C)NC(=O)[C@H](CO)NC(=O)[C@H](CC(C)C)NC(=O)[C@H](CC(C)C)NC(=O)CN)C(N)=O [DFTamP1, GLLSLLSLLGKLL] (H-GLLSLLSLLGKLL-NH2; N-terminus assumed)
MIC ([1]; 1 mM Ca2+): 0.78 µM (≈ 1.04 µg/mL)
MIC ([1]; 2 mM Ca2+): 0.78 to 1.56 µM
MIC ([1]; 50 mM NaCl): 0.78 µM (≈ 1.04 µg/mL)
MIC ([1]; 100 mM NaCl): 0.78 µM (≈ 1.04 µg/mL)
MIC ([1]; 200 mM NaCl): 0.78 µM (≈ 1.04 µg/mL)
MIC ([1]; Human serum (5%), Table 5): 12.5 µM (≈ 16.7 µg/mL)
MIC ([1]; Murine plasma (5%), Table 5): 6.2^ 2 μM
MIC ([1]; NaCl (150 mM), Table 5): 3.1 to 6.2 µM
MIC ([1]; No salts added, Table 6, by UV): 0.78 µM
MIC S. aureus USA 300 ([1]; Table 2, peptides amidated): 0.78 µM (≈ 1.04 µg/mL)
MIC S. aureus USA 300 ([1]; Table 3): 0.78 µM (≈ 1.04 µg/mL)
MIC SA (S. aureus USA300) [1, 13]: 3.1 µM (≈ 4.15 µg/mL)
MIC ([1]; pH 6.8, Table 5, by weight): 6.2 µM (≈ 8.3 µg/mL)
MIC ([1]; pH 7.4, Table 5): 3.1 µM (≈ 4.15 µg/mL)
MIC ([1]; pH 8.0, Table 5): 3.1 µM (≈ 4.15 µg/mL)
MIC P. aeruginosa PAO1 ([2]; Table 2, quantified by UV): >25 µM
MIC PA (P. aeruginosa PAO1) [2, 13]: >25 µM
MIC E. coli ATCC 25922 ([3]; Table 2, quantified by UV): >25 µM
MIC EC (E. coli ATCC 25922) [3, 13]: >25 µM
MIC K. pneumoniae ([4]; Table 2): >25 µM
MIC K. pneumonia ATCC 13883 ([4]; Table 3): >25 µM
HC50 at 1 h ([5]; Table 4, quantitated based on weight, read-out: HL50, peptide concentration for 50% hemolysis): 10 µM
HL50 ([6]; Table 2, lysis of 50% hRBCs (2% v/v)): <3.1 µM
HL50 ([6]; Table 3, hRBCs 2% v/v): <3.1 µM

MIC S. aureus M838-17 [7]: 12.5 µM (≈ 16.3 µg/mL)
MIC P. aeruginosa 411-17 [8]: 25 µM (≈ 32.5 µg/mL)
MIC K. pneumonia 406-17 [9]: >50 µM
Molecule: C[C@H](NC(=O)[C@H](Cc1c[nH]c2ccccc12)NC(=O)[C@H](Cc1c[nH]c2ccccc12)NC(=O)[C@H](Cc1c[nH]c2ccccc12)NC(=O)[C@H](Cc1c[nH]c2ccccc12)NC(=O)[C@H](CCCNC(=N)N)NC(=O)[C@H](CCCNC(=N)N)NC(=O)[C@@H](N)CCCNC(=N)N)C(N)=O [WW308, RRRWWWWA] (H-RRRWWWWA-NH2; N-terminus and C-terminus assumed)
HC50 at 1 h [5]: > 200 µM

MIC S. aureus M838-17 [7]: 6.25 µM (≈ 8.21 µg/mL)
MIC P. aeruginosa 411-17 [8]: 12.5 µM (≈ 16.4 µg/mL)
MIC K. pneumonia 406-17 [9]: >50 µM
Molecule: CC(C)C[C@H](NC(=O)[C@H](Cc1c[nH]c2ccccc12)NC(=O)[C@H](Cc1c[nH]c2ccccc12)NC(=O)[C@H](Cc1c[nH]c2ccccc12)NC(=O)[C@H](CCCNC(=N)N)NC(=O)[C@H](CCCNC(=N)N)NC(=O)[C@H](CCCNC(=N)N)NC(=O)[C@@H](N)CCCNC(=N)N)C(N)=O [WW309, RRRRWWWL] (H-RRRRWWWL-NH2; N-terminus and C-terminus assumed)
HC50 at 1 h [5]: > 200 µM

Molecule: Colistin [reference compound]
MIC ([1]; Table 14, read-out: MIC S. aureus USA300 (MRSA)): >8 µM
MIC [10]: >8 µM
MIC ([8]; Table 14, read-out: MIC P. aeruginosa E411-17): 2 µM
MIC ([9]; Table 14, read-out: MIC K. pneumoniae E406-17): >8 µM
MIC [11]: 1 µM
MIC [12]: 1 µM

MIC S. aureus M838-17 [7]: 3.1 µM (≈ 4.17 µg/mL)
MIC P. aeruginosa 411-17 [8]: 6.25 µM (≈ 8.4 µg/mL)
MIC K. pneumonia 406-17 [9]: 6.25 µM (≈ 8.4 µg/mL)
Molecule: CC(C)C[C@H](NC(=O)[C@H](Cc1c[nH]c2ccccc12)NC(=O)[C@H](Cc1c[nH]c2ccccc12)NC(=O)[C@H](Cc1c[nH]c2ccccc12)NC(=O)[C@H](Cc1c[nH]c2ccccc12)NC(=O)[C@H](CCCNC(=N)N)NC(=O)[C@H](CCCNC(=N)N)NC(=O)[C@@H](N)CCCNC(=N)N)C(N)=O [WW306, RRRWWWWL] (H-RRRWWWWL-NH2; N-terminus and C-terminus assumed)
HC50 at 1 h [5]: 60 µM
